As for `CC(=O)Nc1ccc(OCC(F)(F)F)cc1`, the melting point was 140 to 141 °C.

In turn, `CC(=O)N1CCN=C1Nc1cc(C(C)C)nn1C(C)C` gave a melting point of 139 to 140 °C. Turning to `COc1ccccc1OC(c1ccccc1)C(O)CN` (stereo not drawn), the melting point fell in the range of 80 to 110 °C. As to `CCOC(=O)c1cc2c(OCc3ccccc3)cccc2n1C`, the melting point lay within 89 to 90.5 °C. As to `Cc1cc(N)ccc1NCCNC(N)=O`, the melting point stood at 143 °C. Turning to `C=CCC(O)c1c(-c2ccc(F)cc2)nc(N(C)S(C)(=O)=O)nc1C(C)C` (stereo not drawn), the melting point amounted to 126 °C. Consider `CS(=O)(=O)Nc1ccc(CC(=O)O)cc1`, for which the melting point is 145 to 147 °C. Then `COC(=O)Cc1sc(N=C2SC[C@@H]3Cc4ccccc4CN23)nc1C`, with 66 °C; and `CCC(Oc1ccc(CCC(=O)c2ccc(-c3ccc(C(F)(F)F)cc3)s2)cc1)C(=O)O` (stereo not drawn), with 116 to 117 °C. For `CC1=C(C(=O)O)C(c2ccccc2[N+](=O)[O-])C(C(=O)O)=C(C)N1`, the melting point was 120 to 122 °C. Then `O=c1[nH]c2ccc(CCBr)cc2o1`, with 148 to 151 °C. `O=C(O)C1=Cc2cc(OCc3ccccc3)c(OCc3ccccc3)cc2CCC1`: the melting point lay in the range of 180 to 181 °C. The compound `O=C(c1cccc(Cl)c1)c1cccc(Cl)c1` displayed a melting point of 117 °C. `O=C(CNc1ccccc1)Nc1ccc(Cl)cc1C(=O)O` registered a melting point of 210 to 212 °C. Compound `Fc1ccc2[nH]cc(C3=CCN(CC4COc5ccc6c(c5O4)OCCC6)CC3)c2c1` (stereo not drawn) showed a melting point of 146 to 148 °C.

`CCSCC12CCC(=O)C=C1CCC1C3CC(C)C(=O)C3(C)CCC12` (stereo not drawn) showed a melting point of 102 °C. For `O=C(O)c1ccc(C(=O)O)c(-c2nc3ccccc3[nH]2)c1`, the melting point fell in the range of 312 to 314 °C. The compound `NC(=O)c1sc2nccc(N3CCCN(c4ccc(Cl)cc4)CC3)c2c1N` gave a melting point of 92 to 96 °C. `Nc1ccc(-c2noc(-c3cnn4c(C(F)F)cc(-c5ccc(C(F)(F)F)c(F)c5)nc34)n2)cn1`: the melting point came out at 242 °C. For the compound `CCOc1ccc(C(c2ccc(C(C)(C)C)cc2)C(CC)[N+](=O)[O-])cc1` (stereo not drawn), the melting point was 95 to 97 °C. The compound `COC(=O)C(O)c1ccc(C#N)cc1` (stereo not drawn) gave a melting point of 51 to 52 °C. `CCCOC(=O)CC(c1ccc(OC)cc1)N1C(=O)c2ccccc2C1=O` (stereo not drawn): the melting point lay within 51.2 to 52.8 °C. `O=C(c1cccs1)c1cc2c(c(Cl)c1Cl)OC(CO)C2` (stereo not drawn) came in with a melting point of 65 to 68 °C. On to `COc1nc(C)nc(NNC(N)=NS(=O)(=O)c2ccccc2OC(F)(F)F)n1`, for which the melting point is 245 °C. Turning to `Cc1ccc(NC(=O)c2snnc2C2CC2)cc1Cl`, the melting point was in the range of 150 to 153 °C. On to `COc1cc2[nH]c(S(=O)Cc3nccc(N4CCOCC4)c3F)nc2cc1C` (stereo not drawn), for which the melting point lay in the range of 185 to 186 °C. In the case of `CC(=O)Oc1c(C)ccc2c1NC(O)C1CCCN1C2=O` (stereo not drawn), the melting point fell in the range of 142 to 145 °C. `CCSC(=O)CCS(=O)(=O)CC` yielded a melting point of 35 to 36 °C. The compound `O=C(Nc1cccc(C(F)(F)F)c1)c1ccccc1O` registered a melting point of 188 to 191 °C.

In turn, `C[Si](C)(C)CCOC(=O)c1ccc(F)cc1N` came in with a melting point of 43 to 44 °C. As for `Cc1ccc(C(=O)C2=C(O)C(=O)N(c3ccc(C)nn3)C2c2ccc(C(F)(F)F)cc2)cc1` (stereo not drawn), the figure is 278 °C.

Turning to `CC=CCN1C(=O)c2ccccc2Oc2ncccc21`, the melting point was 79 to 81 °C. `N#CC(c1ccccc1Cl)N1CCOCC1` (stereo not drawn) registered a melting point of 40 to 42 °C. Compound `COC(=O)C(C)c1ccc2cc(OC(=O)CO[N+](=O)[O-])ccc2c1` (stereo not drawn) registered a melting point of 72 to 74 °C.

In the case of `COC(=O)N[C@H](C(=O)N[C@@H](Cc1ccccc1)[C@@H](O)CN(Cc1ccc(-c2nccs2)cc1)NC(=O)OC(C)(C)C)C(C)C`, the melting point lay in the range of 178 to 179 °C.

In turn, `O=C(c1cc(C(F)(F)F)cc(C(F)(F)F)c1)N1CCOc2nccc(-c3ccccc3)c2C1` gave a melting point of 179 to 180 °C.

For `CC(=O)C(=Cc1ccc(O)c(C(=O)O)c1)C(C)=O`, the melting point is 112 to 114 °C.

Compound `C=CCCCn1ncc2c(OCC)c(C(=O)OCC)cnc21` showed a melting point of 61 to 62 °C.

In the case of `CC1=C(C#N)C(c2cccc3nc(-c4ccccc4)sc23)C(C(=O)OC(C)C)=C(C)N1` (stereo not drawn), the melting point turned out to be 218 °C. Compound `CNc1cc(Oc2ccc3c(c2)OCCN3C(=O)Nc2cccc(C(F)(F)F)c2)ncn1` registered a melting point of 180 °C.

For the compound `COC(=O)c1cc(N(C)C)c(N2CCCCC2)c(N(C)C)c1`, the melting point was in the range of 103 to 105 °C.

Compound `Brc1csc2cc(OCc3ccccc3)ccc12` had a melting point of 68 °C.

In the case of `O=C(Nc1ccc2cc(CN3CCCC3)ccc2c1)c1ccc(-c2ccc(Cl)cc2)nc1`, the melting point lay within 270 to 274 °C.

With `COCCNc1cc(Cl)nc(-c2ccccc2)n1`, the melting point was in the range of 128 to 130 °C. `CCn1cc(C(=O)O)c(=O)c2cc(F)c(N3CCN(C)C(c4sc5ccccc5c4C)C3)cc21` (stereo not drawn) yielded a melting point of 253 to 254 °C.

Compound `O=C1C(=O)c2ccc(Br)cc2C2=C1SCC1(CCN(CC(O)COc3ccc(Cl)cc3)CC1)O2` (stereo not drawn) showed a melting point of 150 to 152 °C. In turn, `CS(=O)(=O)OC[C@@H]1Cc2cc3ccccc3n2C[C@H]1COS(C)(=O)=O` (relative stereo) registered a melting point of 139 to 141 °C.

Regarding `N=C(NC(c1ccccc1)c1ccccc1)N1CCOCC1`, the melting point lay within 122 to 124 °C. In turn, `CCN1CCC(c2nc(-c3ccncc3)c(-c3ccc(F)cc3)[nH]2)CC1` came in with a melting point of 242 to 244 °C. In turn, `COC1(OC)CCC2=C(CC(C)C3C2CCC2(C)CCCC32)C1` (stereo not drawn) registered a melting point of 57 °C. Regarding `CC(=O)c1cc2c(s1)C(NC(=O)c1ccc([N+](=O)[O-])cc1)C(O)C(C)(C)O2` (stereo not drawn), the melting point fell in the range of 223 to 225 °C. Take `N#Cc1ccc(Cc2ccc(OCc3ccccc3)cc2)cc1`: the melting point lay within 110 to 111 °C.

Take `OCCNCCOc1ccc(C2=C(c3ccccc3)CCCc3cc(O)ccc32)cc1`: the melting point lay in the range of 176 to 178 °C. Then `Cc1ccccc1-c1nc(N)ncc1-c1ccc(=O)n(C(C)C)n1`, with 203 °C. For `COc1ccc(Nc2nc(-c3ccncc3)cs2)nc1`, the melting point lay within 213 to 214 °C. Regarding `N#Cc1c(Oc2ccc(Oc3ccc(N)cc3)cc2)cccc1Oc1ccc(Oc2ccc(N)cc2)cc1`, the melting point is 233 to 234 °C.

Compound `COc1ccc(-c2nc(-c3ccccn3)cs2)cc1` registered a melting point of 100 to 103 °C. `CCCc1nn(C)c2c(=O)n(CCOc3ccc(CC(OCC)C(=O)O)cc3)c(CC)nc12` (single isomer, unassigned; (+)) gave a melting point of 144 to 145 °C.

`CN1CCCCc2cc(Nc3ncc(Cl)c(Nc4ccccc4NS(C)(=O)=O)n3)ccc21` came in with a melting point of 170 to 172 °C.

`COc1ccc2c(c1)c(Cc1cc(=O)n(-c3ccc(Cl)c(Cl)c3)[nH]1)c(C)n2C(=O)c1ccc(Cl)cc1` returned a melting point of 123 to 125 °C. `C=CCc1cc2c(c(CC=C)c1O)CCC(=O)N2CCO` came in with a melting point of 106 to 108 °C. The compound `Clc1nc(-n2cnc(-c3ccccc3)c2-c2ccccc2)c2[nH]cnc2n1` displayed a melting point of 278 °C. For `CN1Cc2ccccc2C(O)(Cc2ccc(Cl)cc2F)C1` (stereo not drawn), the melting point was 113 to 116 °C. For `COC(=O)COc1cccc2c1S[C@@H](c1ccc(OC)cc1)[C@@H](O)C(=O)N2CCN(C)C` (racemic), the melting point fell in the range of 152 to 160 °C. For the compound `O=C(Nc1ccc(OCCN2CCOCC2)c2ccccc12)c1ccc2snnc2c1`, the melting point is 188 to 190 °C. As for `CCOC(=O)c1cn(CC)c2nc(N3CCNCC3)ncc2c1=O`, the figure is 155 °C; as for `Cc1nc2c3c(ccc2[nH]1)[C@H]1OCCO[C@@H]1[C@@H](c1ccccc1)O3`, 260 °C.

In turn, `CCc1nnc2c(N(C)C)nc3ccccc3n12` registered a melting point of 155 to 158 °C. Then `COc1ccc(-n2ncc(C(=O)Nc3ccc(N4CCC(N5CCOCC5)CC4)c(C#N)c3)c2C)cc1`, with 238 °C.

As for `Cc1c(S(=O)c2ccc([N+](=O)[O-])cc2)cc(C(C)(C)C)c(O)c1C(=O)O` (stereo not drawn), the melting point lay within 201 to 202 °C. `Nc1cccc(Cn2c(-c3ccc(-c4ccccc4)cc3)ccc2-c2ccccc2Cl)n1` returned a melting point of 181 to 185 °C. Compound `CC(=O)N1CCN(Cc2cnc(-c3cc4cccc(N(C)S(=O)(=O)c5cccs5)c4[nH]3)s2)CC1` had a melting point of 177 to 178 °C. In the case of `CN(C)C=Nc1ccc(-n2ncnc2-c2ccc(F)cc2)cc1`, the melting point lay within 90 to 93 °C. `COC(=O)Nc1cc(N2CC=CCC2)nc2nc(=O)on12` registered a melting point of 213 to 214 °C. As for `CC(=NO)C(C)Oc1ccccc1` (stereo not drawn), the figure is 65 to 67 °C; as for `COc1ccnc(N2CCN(C(=O)c3cc4ccccc4[nH]3)CC2)n1`, 202 to 203 °C. As for `Cc1nc(-c2ccc(OC(C)C)c(C#N)c2)sc1C(=O)O`, the melting point was in the range of 220 to 222 °C.

`Cc1cc(-c2ccc(C(F)(F)F)cn2)nc(-c2cccc(-c3cccc(S(N)(=O)=O)c3)n2)n1` had a melting point of 246 to 252 °C. Consider `CCCOc1ccc(NC=C(C(=O)OCC)C(=O)OCC)nc1C`, for which the melting point fell in the range of 116 to 118 °C.

The compound `COc1ccc(-n2c(-c3ccc(OCCCl)cc3)nc3c(OC)cccc3c2=O)cc1` gave a melting point of 151 to 152 °C. Take `CCN(CC)N(C(C)=O)c1nc2cc3nc(N(C(C)=O)N(CC)CC)sc3cc2s1`: the melting point lay in the range of 224 to 225 °C. For `Cc1ccnc(C)c1O`, the melting point was 105 to 106 °C. Then `Cc1ccc(C2C(=O)CC(C)(C)CC2=O)cc1`, with 200 to 202 °C; and `CCN(CC)CCNC(=O)c1ccc(N(S(C)(=O)=O)S(C)(=O)=O)cc1OC`, with 144 °C; and `CCN(CC)c1cccc2nc3n(c12)CC(OC)CCN3c1ccc(Cl)cc1Cl` (stereo not drawn), with 120 to 122 °C.

Regarding `CCOC(=O)C1(Cc2ccc(OC)cc2)CCCC1`, the melting point is 63.5 to 64.5 °C.

The compound `CCOC(=O)/C=C/C=C/c1ccc(OCc2ccccc2)c(OC)c1` showed a melting point of 85 to 86 °C. Take `CCCNC(=O)C(C)=Cc1ccc2[nH]cc(Cc3ccc(C(=O)OC)cc3OC)c2c1`: the melting point fell in the range of 55 to 60 °C.

The values are drawn from a melting point compilation (Tetko et al.; mined from patent text by program, amines drawn as free bases though some values may be those of a salt).
